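Grown in 96-well plates, cells were treated for 48 hours with each compound at five concentrations. Insufficient inhibition: endpoint recorded as highest concentration tested. GI50: concentration for 50% inhibition of growth. TGI: total growth inhibition.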
Assays:
Assay in all cases: growth of human tumour cells (NCI), 48 h
HCT-15 colon = system: HCT-15 colon
NCI-H226 lung = system: NCI-H226 lung
SF-539 CNS = system: SF-539 CNS
NCI/ADR-RES ovarian = system: NCI/ADR-RES ovarian
MDA-MB-435 = system: MDA-MB-435
OVCAR-8 ovarian = system: OVCAR-8 ovarian
NCI-H23 lung = system: NCI-H23 lung
RPMI-8226 leukemia = system: RPMI-8226 leukemia
OVCAR-3 ovarian = system: OVCAR-3 ovarian
HCT-116 colon = system: HCT-116 colon
SW-620 colon = system: SW-620 colon
NCI-H460 lung = system: NCI-H460 lung
MOLT-4 leukemia = system: MOLT-4 leukemia
SN12C renal = system: SN12C renal
A549 NSCLC = system: A549 NSCLC
NCI-H522 lung = system: NCI-H522 lung
UACC-257 melanoma = system: UACC-257 melanoma
A498 renal = system: A498 renal
786-0 renal = system: 786-0 renal
U251 CNS = system: U251 CNS
PC-3 prostate = system: PC-3 prostate
UACC-62 melanoma = system: UACC-62 melanoma
COLO 205 colon = system: COLO 205 colon
SNB-19 CNS = system: SNB-19 CNS
OVCAR-5 ovarian = system: OVCAR-5 ovarian
SK-MEL-2 melanoma = system: SK-MEL-2 melanoma
SR leukemia = system: SR leukemia
KM12 colon = system: KM12 colon
M14 melanoma = system: M14 melanoma
MCF7 breast = system: MCF7 breast
HS 578T breast = system: HS 578T breast
MDA-MB-231 breast = system: MDA-MB-231 breast
HL-60(TB) leukemia = system: HL-60(TB) leukemia
DU-145 prostate = system: DU-145 prostate
ACHN renal = system: ACHN renal
UO-31 renal = system: UO-31 renal
K-562 leukemia = system: K-562 leukemia
T-47D breast = system: T-47D breast
EKVX NSCLC = system: EKVX NSCLC
SNB-75 CNS = system: SNB-75 CNS
SK-MEL-28 melanoma = system: SK-MEL-28 melanoma
HT29 colon = system: HT29 colon
HOP-62 NSCLC = system: HOP-62 NSCLC
OVCAR-4 ovarian = system: OVCAR-4 ovarian
SK-MEL-5 melanoma = system: SK-MEL-5 melanoma
SF-268 CNS = system: SF-268 CNS
HCC-2998 colon = system: HCC-2998 colon
BT-549 breast = system: BT-549 breast
CCRF-CEM leukemia = system: CCRF-CEM leukemia
RXF 393 renal = system: RXF 393 renal
TK-10 renal = system: TK-10 renal
SK-OV-3 ovarian = system: SK-OV-3 ovarian
LOX IMVI melanoma = system: LOX IMVI melanoma
MALME-3M melanoma = system: MALME-3M melanoma
IGROV1 ovarian = system: IGROV1 ovarian
HOP-92 NSCLC = system: HOP-92 NSCLC
SF-295 CNS = system: SF-295 CNS

SMILES: Nc1n[nH]c2cccc(C#Cc3cccc(NC(=O)c4cccc(C(F)(F)F)c4)c3)c12
- GI50 (HCT-15 colon): 2.92 µM
- TGI (HCT-15 colon): 13.6 µM
- GI50 (NCI-H226 lung): 0.86 µM
- TGI (NCI-H226 lung): 20.3 µM
- GI50 (SF-539 CNS): 1.19 µM
- TGI (SF-539 CNS): 3.47 µM
- GI50 (NCI/ADR-RES ovarian): 3.91 µM
- TGI (NCI/ADR-RES ovarian): 23.2 µM
- GI50 (MDA-MB-435): 3.04 µM
- TGI (MDA-MB-435): 13.7 µM
- GI50 (OVCAR-8 ovarian): 4.82 µM
- TGI (OVCAR-8 ovarian): 16.6 µM
- GI50 (NCI-H23 lung): 2.86 µM
- TGI (NCI-H23 lung): 15.8 µM
- GI50 (RPMI-8226 leukemia): 3.44 µM
- TGI (RPMI-8226 leukemia): 21.5 µM
- GI50 (OVCAR-3 ovarian): 5.07 µM
- TGI (OVCAR-3 ovarian): 17.3 µM
- GI50 (HCT-116 colon): 0.855 µM
- TGI (HCT-116 colon): 4.61 µM
- GI50 (SW-620 colon): 3.22 µM
- TGI (SW-620 colon): 19.5 µM
- GI50 (NCI-H460 lung): 4.11 µM
- TGI (NCI-H460 lung): 15.7 µM
- GI50 (MOLT-4 leukemia): 2.21 µM
- TGI (MOLT-4 leukemia): 13.3 µM
- GI50 (SN12C renal): 4.09 µM
- TGI (SN12C renal): 17.3 µM
- GI50 (A549 NSCLC): 4.84 µM
- TGI (A549 NSCLC): 18.6 µM
- GI50 (NCI-H522 lung): 4.42 µM
- TGI (NCI-H522 lung): 18.1 µM
- GI50 (UACC-257 melanoma): 4.3 µM
- TGI (UACC-257 melanoma): 15.8 µM
- GI50 (A498 renal): 2.41 µM
- TGI (A498 renal): 5.57 µM
- GI50 (786-0 renal): 3.03 µM
- TGI (786-0 renal): 8.74 µM
- GI50 (U251 CNS): 5.32 µM
- TGI (U251 CNS): 17.2 µM
- GI50 (PC-3 prostate): 3.96 µM
- TGI (PC-3 prostate): 14.6 µM
- GI50 (UACC-62 melanoma): 2.54 µM
- TGI (UACC-62 melanoma): 11.4 µM
- GI50 (COLO 205 colon): 3.65 µM
- TGI (COLO 205 colon): 15.1 µM
- GI50 (SNB-19 CNS): 6.13 µM
- TGI (SNB-19 CNS): 18.5 µM
- GI50 (OVCAR-5 ovarian): 2.21 µM
- TGI (OVCAR-5 ovarian): 14 µM
- GI50 (SK-MEL-2 melanoma): 1.36 µM
- TGI (SK-MEL-2 melanoma): 6.95 µM
- GI50 (SR leukemia): 3.95 µM
- TGI (SR leukemia): 55 µM
- GI50 (KM12 colon): 4.52 µM
- TGI (KM12 colon): 19.8 µM
- GI50 (M14 melanoma): 1.88 µM
- TGI (M14 melanoma): 10 µM
- GI50 (MCF7 breast): 3 µM
- TGI (MCF7 breast): 15.8 µM
- GI50 (HS 578T breast): 1.96 µM
- TGI (HS 578T breast): 6.09 µM
- GI50 (MDA-MB-231 breast): 1.5 µM
- TGI (MDA-MB-231 breast): 6.5 µM
- GI50 (HL-60(TB) leukemia): 0.875 µM
- TGI (HL-60(TB) leukemia): 4.55 µM
- GI50 (DU-145 prostate): 5.69 µM
- TGI (DU-145 prostate): 17.6 µM
- GI50 (ACHN renal): 2.44 µM
- TGI (ACHN renal): 9.78 µM
- GI50 (UO-31 renal): 2.29 µM
- TGI (UO-31 renal): 9.45 µM
- GI50 (K-562 leukemia): 0.19 µM
- TGI (K-562 leukemia): 11.1 µM
- GI50 (T-47D breast): 1.81 µM
- TGI (T-47D breast): 8.1 µM
- GI50 (EKVX NSCLC): 6.2 µM
- TGI (EKVX NSCLC): 19.8 µM
- GI50 (SNB-75 CNS): 2.79 µM
- TGI (SNB-75 CNS): 18.6 µM
- GI50 (SK-MEL-28 melanoma): 2.72 µM
- TGI (SK-MEL-28 melanoma): 12.5 µM
- GI50 (HT29 colon): 2.98 µM
- TGI (HT29 colon): 12.8 µM
- GI50 (HOP-62 NSCLC): 3.41 µM
- TGI (HOP-62 NSCLC): 13.9 µM
- GI50 (OVCAR-4 ovarian): 3.67 µM
- TGI (OVCAR-4 ovarian): 17.7 µM
- GI50 (SK-MEL-5 melanoma): 4.13 µM
- TGI (SK-MEL-5 melanoma): 14.8 µM
- GI50 (SF-268 CNS): 3.82 µM
- TGI (SF-268 CNS): 16.3 µM
- GI50 (HCC-2998 colon): 2.43 µM
- TGI (HCC-2998 colon): 7.31 µM
- GI50 (BT-549 breast): 3.34 µM
- TGI (BT-549 breast): 11.1 µM
- GI50 (CCRF-CEM leukemia): 2.69 µM
- TGI (CCRF-CEM leukemia): 15.9 µM
- GI50 (RXF 393 renal): 1.65 µM
- TGI (RXF 393 renal): 3.97 µM
- GI50 (TK-10 renal): 5.61 µM
- TGI (TK-10 renal): 13.7 µM
- GI50 (SK-OV-3 ovarian): 3.19 µM
- TGI (SK-OV-3 ovarian): 10.2 µM
- GI50 (LOX IMVI melanoma): 1.53 µM
- TGI (LOX IMVI melanoma): 3.41 µM
- GI50 (MALME-3M melanoma): 0.446 µM
- TGI (MALME-3M melanoma): 10.9 µM
- GI50 (IGROV1 ovarian): 1.53 µM
- TGI (IGROV1 ovarian): 4.31 µM
- GI50 (HOP-92 NSCLC): 1.9 µM
- TGI (HOP-92 NSCLC): 5.24 µM
- GI50 (SF-295 CNS): 2.68 µM
- TGI (SF-295 CNS): 10.5 µM

— PubChem BioAssay (NCI)
